From patent US20090069320A1, “Substituted 4-Amino-Quinazoline Compounds with Metabotropic Glutamate Receptor Regulating Activity and Uses Thereof” (Gruenenthal GmbH, priority 2006, published 2009)
Where a name gives a salt, the structure may show the parent alone.

Target: T1, mGluR5 receptor (Sus scrofa, UniProt I3LUI7)
T1 construct: 450 μg of protein from brain homogenate with 5 nM ^3[H]-MPEP; from tissue; host or cells: pig brain halves without medulla, cerebellum and pons
Assay: [3H]-MPEP mGluR5 receptor binding assay (pig brain homogenate)
Settings: 5 nM [3H]-MPEP, read-out: IC50 mGluR5 Receptor (pig) [^3H]-MPEP Bond
Description: I. Method for Determining the Inhibition of the [^3H]-MPEP Bond in the mGluR5 Receptor Binding Assay
Pig brain homogenate is produced by homogenizing (Polytron PT 3000, Kinematica AG, 10 000 rpm for 90 seconds) pig brain halves without medulla, cerebellum and pons in pH 8.0 buffer (20 mM Hepes, Sigma, order no. H3375+1 complete tablet, 100 ml, Roche Diagnostics, order no. 1836145) in the ratio of 1:20 (brain weight/volume) and differential centrifuging at 900×g and 40 000×g. In incubation batches of 250 μl in 96-well microtitre plates 450 μg of protein from brain homogenate with 5 nM ^3[H]-MPEP (Tocris, order no. R1212) (MPEP=[…]) and the compounds to be examined (10 μM in test) in buffer (as above) are respectively incubated at room temperature for 60 minutes.
The batches are then filtered using a Brandel cell harvester (Brandel, Robotic 9600) on unifilter plates with fibreglass filter mats (Perkin Elmer, order no. 6005177) and then washed with buffer (as above) 3-times each with 250 μl per sample. The filter plates are then dried for 60 mins. at 55° C. Then, 30 μL of Ultima Gold™ scintillator (Packard BioScience, order no. 6013159) are added per well and after 3 hours the samples are measured on the β-counter (MicroBeta, Perkin Elmer). The non-specific binding is determined by adding 10 μM of MPEP (Tocris, order no. 1212).

T1 sequence (I3LUI7 19-1212): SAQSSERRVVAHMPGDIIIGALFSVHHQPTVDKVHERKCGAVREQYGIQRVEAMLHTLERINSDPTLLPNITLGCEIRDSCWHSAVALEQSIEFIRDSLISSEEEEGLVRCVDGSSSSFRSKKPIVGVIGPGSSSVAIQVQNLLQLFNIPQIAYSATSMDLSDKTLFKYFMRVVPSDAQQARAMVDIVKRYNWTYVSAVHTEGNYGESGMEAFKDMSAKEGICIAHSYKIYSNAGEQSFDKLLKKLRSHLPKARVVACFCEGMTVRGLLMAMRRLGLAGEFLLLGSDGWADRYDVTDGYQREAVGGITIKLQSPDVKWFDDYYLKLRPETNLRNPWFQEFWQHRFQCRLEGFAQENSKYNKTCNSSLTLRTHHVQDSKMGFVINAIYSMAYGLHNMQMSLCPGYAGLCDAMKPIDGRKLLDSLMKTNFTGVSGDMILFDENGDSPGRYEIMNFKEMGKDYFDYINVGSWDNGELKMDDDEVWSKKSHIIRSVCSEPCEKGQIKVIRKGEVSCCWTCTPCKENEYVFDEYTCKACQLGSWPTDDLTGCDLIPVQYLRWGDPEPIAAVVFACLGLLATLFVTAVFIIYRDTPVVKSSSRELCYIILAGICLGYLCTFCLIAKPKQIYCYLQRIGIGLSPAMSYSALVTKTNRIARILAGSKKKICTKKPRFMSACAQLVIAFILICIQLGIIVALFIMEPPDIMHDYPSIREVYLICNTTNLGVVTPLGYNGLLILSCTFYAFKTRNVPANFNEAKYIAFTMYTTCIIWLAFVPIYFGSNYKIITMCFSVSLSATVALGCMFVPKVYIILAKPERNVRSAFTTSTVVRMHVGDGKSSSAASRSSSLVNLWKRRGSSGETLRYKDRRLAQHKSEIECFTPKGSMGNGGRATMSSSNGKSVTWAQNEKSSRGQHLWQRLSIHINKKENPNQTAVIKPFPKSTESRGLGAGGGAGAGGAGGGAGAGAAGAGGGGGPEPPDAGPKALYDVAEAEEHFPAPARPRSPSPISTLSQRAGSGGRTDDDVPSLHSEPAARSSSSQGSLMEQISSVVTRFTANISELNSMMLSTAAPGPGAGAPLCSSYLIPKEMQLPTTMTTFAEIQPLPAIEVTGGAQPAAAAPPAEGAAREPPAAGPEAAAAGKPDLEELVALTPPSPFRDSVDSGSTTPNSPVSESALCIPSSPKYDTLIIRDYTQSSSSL

SMILES | IC50 [µM]
O=C1COCC(=O)N1Cc1cc(-c2ccc3ncnc(NC4CC4)c3c2)ccc1F [Example 189, 4-(5-(4-(cyclopropylamino)quinazolin-6-yl)-2-fluorobenzyl)morpholine-3,5-dione] | 0.21
CC(=O)N(Cc1cccc(-c2ccc3ncnc(NC4CC4)c3c2)c1F)C1CC1 [Example 191, N-cyclopropyl-N-(3-(4-(cyclopropylamino)quinazolin-6-yl)-2-fluorobenzyl)acetamide] | 0.67
O=C1CCC(=O)N1Cc1cc(-c2ccc3ncnc(NC4CC4)c3c2)ccc1F [Example 193, 1-(5-(4-(cyclopropylamino)quinazolin-6-yl)-2-fluorobenzyl)pyrrolidine-2,5-dione] | 0.27
N#CCC(=O)N(Cc1cccc(-c2ccc3ncnc(NC4CC4)c3c2)c1F)C1CC1 [Example 197, 2-cyano-N-cyclopropyl-N-[3-(4-cyclopropylamino-quinazolin-6-yl)-2-fluoro-benzyl]-acetamide] | 0.66
CNc1ncnc2ccc(-c3cccc(CN4C(=O)CCC4=O)c3)cc12 [Example 198, 1-[3-(4-methylamino-quinazolin-6-yl)-benzyl]-pyrrolidine-2,5-dione] | 5.19
O=C1CCC(=O)N1Cc1cccc(-c2ccc3ncnc(NCc4ccccc4)c3c2)c1 [Example 199, 1-(3-(4-(benzylamino)quinazolin-6-yl)benzyl)pyrrolidine-2,5-dione] | 1.25
O=C(CC(F)(F)F)N(Cc1cccc(-c2ccc3ncnc(NC4CC4)c3c2)c1)C1CC1 [Example 205, N-cyclopropyl-N-[3-(4-cyclopropylamino-quinazolin-6-yl)-benzyl]-3,3,3-trifluoro-propionamide; hydrochloride] | 0.33
CC(=O)N(Cc1cccc(-c2ccc3ncnc(NC4CC4)c3c2)c1)c1ccccc1 [Example 207, N-(3-(4-(cyclopropylamino)quinazolin-6-yl)benzyl)-N-phenylacetamide hydrochloride] | 7.17

Same assay, conditions: 10 μM compound, 5 nM [3H]-MPEP, read-out: % Inhibition of mGluR5 Receptor (pig) [^3H]-MPEP Bond at 10 μM

SMILES | inhibition at 10 µM [%]
O=C(c1cnccn1)N(Cc1cccc(-c2ccc3ncnc(NC4CC4)c3c2)c1)C1CC1 [Example 162, pyrazine-2-carboxylic acid cyclopropyl-[3-(4-cyclopropylamino-quinazolin-6-yl)-benzyl]-amide] | 84
O=C(c1cccc(Br)n1)N(Cc1cccc(-c2ccc3ncnc(NC4CC4)c3c2)c1)C1CC1 [Example 163, 6-bromo-pyridine-2-carboxylic acid cyclopropyl-[3-(4-cyclopropylamino-quinazolin-6-yl)-benzyl]-amide] | 89
O=C(COc1ccccc1)N(Cc1cccc(-c2ccc3ncnc(NC4CC4)c3c2)c1)C1CC1 [Example 164, N-cyclopropyl-N-[3-(4-cyclopropylamino-quinazolin-6-yl)-benzyl]-2-phenoxy-acetamide] | 86
O=C(c1ccncc1)N(Cc1cccc(-c2ccc3ncnc(NC4CC4)c3c2)c1)C1CC1 [Example 165, N-cyclopropyl-N-[3-(4-cyclopropylamino-quinazolin-6-yl)-benzyl]-isonicotinamide] | 88
O=C(c1ccc(Br)s1)N(Cc1cccc(-c2ccc3ncnc(NC4CC4)c3c2)c1)C1CC1 [Example 166, 5-bromo-thiophene-2-carboxylic acid cyclopropyl-[3-(4-cyclopropylamino-quinazolin-6-yl)-benzyl]-amide] | 86
O=C(c1ccccc1C(F)(F)F)N(Cc1cccc(-c2ccc3ncnc(NC4CC4)c3c2)c1)C1CC1 [Example 167, N-cyclopropyl-N-[3-(4-cyclopropylamino-quinazolin-6-yl)-benzyl]-2-trifluoromethyl-benzamide] | 98
CCCC(=O)N(Cc1cccc(-c2ccc3ncnc(NC4CC4)c3c2)c1)C1CC1 [Example 168, N-cyclopropyl-N-[3-(4-cyclopropylamino-quinazolin-6-yl)-benzyl]-butyramide] | 90
O=C(c1ccco1)N(Cc1cccc(-c2ccc3ncnc(NC4CC4)c3c2)c1)C1CC1 [Example 169, furan-2-carboxylic acid cyclopropyl-[3-(4-cyclopropylamino-quinazolin-6-yl)-benzyl]-amide] | 91
O=C(c1ccccn1)N(Cc1cccc(-c2ccc3ncnc(NC4CC4)c3c2)c1)C1CC1 [Example 170, pyridine-2-carboxylic acid cyclopropyl-[3-(4-cyclopropylamino-quinazolin-6-yl)-benzyl]-amide] | 78
COc1ccc(C(=O)N(Cc2cccc(-c3ccc4ncnc(NC5CC5)c4c3)c2)C2CC2)cc1 [Example 171, N-cyclopropyl-N-[3-(4-cyclopropylamino-quinazolin-6-yl)-benzyl]-4-methoxy-benzamide] | 100
O=C(c1ccccc1Cl)N(Cc1cccc(-c2ccc3ncnc(NC4CC4)c3c2)c1)C1CC1 [Example 172, 2-chloro-N-cyclopropyl-N-[3-(4-cyclopropylamino-quinazolin-6-yl)-benzyl]-benzamide] | 99
CN(C)CC(=O)N(Cc1cccc(-c2ccc3ncnc(NC4CC4)c3c2)c1)C1CC1 [Example 173, N-cyclopropyl-N-[3-(4-cyclopropylamino-quinazolin-6-yl)-benzyl]-2-dimethylamino-acetamide] | 30
O=C(Cc1ccccn1)N(Cc1cccc(-c2ccc3ncnc(NC4CC4)c3c2)c1)C1CC1 [Example 174, N-cyclopropyl-N-[3-(4-cyclopropylamino-quinazolin-6-yl)-benzyl]-2-pyridin-2-yl-acetamide] | 97
Cc1ccc(C(=O)N(C)Cc2cccc(-c3ccc4ncnc(NC5CC5)c4c3)c2)cc1 [Example 175, N-[3-(4-cyclopropylamino-quinazolin-6-yl)-benzyl]-4,N-dimethyl-benzamide] | 85
N#Cc1cccc(C(=O)N(Cc2cccc(-c3ccc4ncnc(NC5CC5)c4c3)c2)C2CC2)c1 [Example 176, 3-cyano-N-cyclopropyl-N-[3-(4-cyclopropylamino-quinazolin-6-yl)-benzyl]-benzamide] | 76
O=C(c1ccc(C(F)(F)F)cc1F)N(Cc1cccc(-c2ccc3ncnc(NC4CC4)c3c2)c1)C1CC1 [Example 177, N-cyclopropyl-N-[3-(4-cyclopropylamino-quinazolin-6-yl)-benzyl]-2-fluoro-4-trifluoromethyl-benzamide] | 97
O=C(c1cccs1)N(Cc1cccc(-c2ccc3ncnc(NC4CC4)c3c2)c1)C1CC1 [Example 178, thiophene-2-carboxylic acid cyclopropyl-[3-(4-cyclopropylamino-quinazolin-6-yl)-benzyl]-amide] | 84
O=C(c1ccc(Cl)nc1)N(Cc1cccc(-c2ccc3ncnc(NC4CC4)c3c2)c1)C1CC1 [Example 179, 6-chloro-N-cyclopropyl-N-[3-(4-cyclopropylamino-quinazolin-6-yl)-benzyl]-nicotinamide] | 89
COC(=O)CN(Cc1cccc(-c2ccc3ncnc(NC4CC4)c3c2)c1)C(=O)CC#N [Example 190, methyl 2-(2-cyano-N-(3-(4-(cyclopropylamino)quinazolin-6-yl)benzyl)acetamido)acetate] | 58
O=C1C=CC(=O)N1Cc1cc(-c2ccc3ncnc(NC4CC4)c3c2)ccc1F [Example 192, 1-(5-(4-(cyclopropylamino)quinazolin-6-yl)-2-fluorobenzyl)-1H-pyrrole-2,5-dione] | 41
N#CCC(=O)N(Cc1cccc(-c2ccc3ncnc(NC4CC4)c3c2)c1)c1cccnc1 [Example 195, 2-cyano-N-[3-(4-cyclopropylamino-quinazolin-6-yl)-benzyl]-N-pyridin-3-yl-acetamide] | 40
CC(=O)N(CC#N)Cc1cccc(-c2ccc3ncnc(NC4CC4)c3c2)c1 [Example 200, N-cyanomethyl-N-[3-(4-cyclopropylamino-quinazolin-6-yl)-benzyl]-acetamide] | 40
CC(=O)OCN(Cc1cccc(-c2ccc3ncnc(NC4CC4)c3c2)c1)C(C)=O [Example 203, {acetyl-[3-(4-cyclopropylamino-quinazolin-6-yl)-benzyl]-amino}-methyl acetate] | 39
O=S1(=O)CCCN1Cc1cccc(-c2ccc3ncnc(NC4CC4)c3c2)c1 [Example 206, cyclopropyl-{6-[3-(1,1-dioxo-1λ^6-isothiazolidin-2-ylmethyl)-phenyl]-quinazoline-4-yl}-amine; hydrochloride] | 34
CC(=O)N(Cc1cccc(-c2ccc3ncnc(NC4CC4)c3c2)c1)C1CCCC1 [Example 209, N-cyclopentyl-N-(3-(4-(cyclopropylamino)quinazolin-6-yl)benzyl)acetamide] | 63

Same assay, conditions: IC50 mGluR5 Receptor (pig) [^3H]-MPEP Bond, 5 nM [3H]-MPEP

SMILES | IC50 [µM]
O=C(CF)N(Cc1cccc(-c2ccc3ncnc(NC4CC4)c3c2)c1)C1CC1 [Example 208, N-cyclopropyl-N-[3-(4-cyclopropylamino-quinazolin-6-yl)-benzyl]-2-fluoro-acetamide] | 0.12
